Patent US20090211893A1, “Photo-Activatable Amino Acids” (priority 2005, published 2009)

Assays:
caveolin-1 = assay: Photo-crosslinking of transfected caveolin-1 in COS7 cells; format: cell-based, human; details: irradiated samples, COS7 cells in LM-4
Procedure: FIG. 3: Photo-crosslinking induced by photo-amino acids. COS7 cells (panels a,b) or HeLa cells (panel c) were grown in LM-4 (panel a) or LM-2 (panels b,c) in the absence or presence of L-photo-Leu (pL), L-photo-Met (pM) or DL-photo-Ile (pl) or mixtures of them (pLM or PLMI) followed by UV irradiation (+) or no irradiation (−). cross-linked products formed after UV-irradiation were detected by SDS-PAGE followed by western blotting using (a) anti-caveolin 1 to detect overexpressed caveolin 1, (b) anti-stomatin to detect endogenous stomatin or (c) anti-EEA1 to detect endogenous EEA1. In panel b, lanes 8 and 9 show cross-linking with two different concentrations of the chemical cross-linker DSS for comparison of cross-linking efficiency. In panel c, photocrosslinking of endogenous EEA1 by photo-Leu and photo-Met is compared to chemical cross-linking using DSS or para-formaldehyde (PFA) as indicated. Note that chemical cross-linking leads to protein aggregates that are not resolvable by SDS-PAGE while photocrosslinking identifies more than six discrete cross-linked bands.
COS7 (monkey kidney) cells were grown in DMEM high glucose (Gibco no. 11995; with L-glutamine and Na-pyruvate)+10% FCS. Typically, 3 cm2 of cells are needed for a cross-linking experiment with detection by western blotting. At about 70%, medium was replaced by LM-4 (DMEM lacking Met, Leu, Ile and Val and phenol red, supplemented with 5% dialyzed FCS) or by LM-2 (LM-4+1 mM of each Ile and Val). Photo-amino acids were added to a final concentration of 4 mM photo-Leu and photo-Ile, 1.7 mM photo-Met and cells were cultivated for further 22 h followed by washing with PBS and UV-irradiation using a 200 W high pressure mercury lamp (Oriel Photomax) with a glass filter to remove wavelengths shorter 310 nm. The samples were placed at a distance of 38 cm to the light source, corresponding to a illuminated area of 105 mm diameter. […] We used an irradiation time 1-3 min for experiments with living cells. […] Lysis of cells, SDS-PAGE and western blotting were done as described^33. […]

COS7 cells [1] = assay: Protein biosynthesis by incorporation of [3H]Phe; format: cell-based, monkey; details: for Protein synthesis: LM-2 medium supplement, value in full DMEM medium set to 100, average ± SD of triplicate; for effect on protein biosynthesis: addition to LM-2 medium
Description: (§1) Unnatural amino acids frequently are toxic to cells. To find out if this is the case for photo-amino acids of the invention, we monitored in COS7 cells protein biosynthesis by incorporation of [^3H]Phe and viability by trypan blue exclusion of cells grown in the presence or absence of the photo-amino acids photo-Leu, photo-Met and photo-Ile. Due to the lack of two essential amino acids in the growth medium, protein biosynthesis is reduced to about 65% of that in a full growth medium. […] Although cells grew slightly slower than in full growth medium, viability (Table 2) and cell morphology (not shown) were unaffected.

COS7 cells [2] = assay: Cell viability by trypan blue exclusion; format: cell-based, monkey; details: LM-2 medium supplement; percent ± SD of viable cells (n = 6)
Description: as §1

[3] = test system: E. coli beta-galactosidase; assay: Activity of beta-galactosidase expressed in cells grown with photo-amino acids; format: cell-based, monkey; details: COS 7 cells, 20 h in LM-2 with photo-amino acid; percent ± SD (n = 6) of value in DMEM + FCS
Description: We furthermore tested, whether proteins produced by cells grown with photo-amino acids are functional or not. For that, we transfected cells with GFP-fusion constructs of the small GTPase Rab5 and of mutated Rab5 that is constitutively activated (GFP-Rab5QL) or dominant negative (GFP-Rab5SN)^19 and monitored the GFP fluorescence by confocal microscopy. Four hours after transfection, when cells were switched to media containing photo-amino acids, no GFP signal was detectable (see FIG. 7). […] Both, staining intensity and localization were unaffected by the presence of either of the photo-amino acids. Taking into account a frequency of substitution of photo-Met for Met of 35% (see below) and the amounts of Met in Rab5 and GFP, more than 80% of the fusion protein will have photo-Met in both the Rab5- and the GFP-part of the fusion, more than 99% in at least one of the two parts. […] To corroborate this with a quantitative assay, we measured the activity of beta-galactosidase that was expressed in the absence or presence of photo-amino acids (see Table 4). Activity in LM-2 labeling medium was 79% of that in full DMEM. The addition of either of the three photo-amino acids or of a mixture of photo-Met and photo-Leu had no significant additional effect. E. coli beta-galactosidase contains 23 methionines of which on average 8 would be replaced by photo-Met; less than 0.01% of the protein are expected to have no substitution by photo-Met. We conclude that photo-amino acids are non-toxic to cultivated mammalian cells and can, at least partially, functionally replace branched chain amino acids and methionine.

COS7 cells [4] = assay: Cell viability after UV irradiation by trypan blue exclusion; format: cell-based, monkey
Procedure: COS7 (monkey kidney) cells were grown in DMEM high glucose (Gibco no. 11995; with L-glutamine and Na-pyruvate)+10% FCS. Typically, 3 cm2 of cells are needed for a cross-linking experiment with detection by western blotting. At about 70%, medium was replaced by LM-4 (DMEM lacking Met, Leu, Ile and Val and phenol red, supplemented with 5% dialyzed FCS) or by LM-2 (LM-4+1 mM of each Ile and Val). Photo-amino acids were added to a final concentration of 4 mM photo-Leu and photo-Ile, 1.7 mM photo-Met and cells were cultivated for further 22 h followed by washing with PBS and UV-irradiation using a 200 W high pressure mercury lamp (Oriel Photomax) with a glass filter to remove wavelengths shorter 310 nm. The samples were placed at a distance of 38 cm to the light source, corresponding to a illuminated area of 105 mm diameter. […] We used an irradiation time 1-3 min for experiments with living cells. […] Lysis of cells, SDS-PAGE and western blotting were done as described^33. For immunoprecipitation, cells were lysed in 20 mM Hepes/NaOH pH 7.4, 100 mM NaCl, 5 mM EDTA, 1% Triton X 100, 0.5% sodium deoxycholate, the lysate was cleared with protein-A beads and incubated with beads that were preincubated with polyclonal anti-myc or anti-HA antibody. Beads were collected and washed three times each with 20 mM Hepes/NaOH pH 7.25, 0.5% CHAPS and with 100 mM Tris-HCl pH 8.3, 150 mM NaCl, 2 mM EDTA, 0.1% w/v SDS, 0.5% w/v Nonidet P40, 0.5% w/v sodiumdeoxycholate. Proteins were eluted from beads by heating with reducing SDS-PAGE sample buffer.
as §1

COS7 cells [5] = assay: as above; format: cell-based, monkey; remark: listed apart in the source
HA-tagged human PGRMC1 = assay: Competition of PGRMC1 cross-linking by natural amino acids; format: cell-based; details: 3 mM competing amino acid, COS7 cells in LM-4
Procedure: FIG. 4: Specificity of incorporation and cross-linking by photo-Met and photo-Leu. COS7 cells were transfected with HA-tagged human PGRMC1 and were grown in LM-4 in the absence or presence of photo-Leu (A) or photo-Met (B) with addition of 3 mM of the indicated competing amino acid. cross-linked products formed after UV-irradiation were detected by SDS-PAGE followed by western blotting against the HA-epitope. (C) COS7 cells were grown in the presence of 1.7 mM [1-^14C]photo-Met, a constant trace amount of [^3H]Phe and 3 mM of competing unlabeled amino acids as indicated in the legend. Protein was precipitated and protein-bound radioactivity was determined by scintillation counting. […] The control value obtained in the absence of competing amino acid (con) is set to 100. Data are average±SD of triplicate determinations.
If so, addition of the complementary naturally occurring amino acid should strongly reduce incorporation and inhibit photo-crosslinking. […] To find out if competition for cross-linking reflects competition for incorporation, we competed incorporation of [1-^14C]photo-Met with the same set of amino acids (FIG. 4c). […] It should be noted that Met, Val, Leu and Ile all are transported into cells by the L-type transport system^25, which presumably also transports the three photo-amino acids. The strong difference in competition by Met and Leu versus Val and Ile excludes competition at the level of uptake.

| Compound | formation of covalent caveolin dimers upon UV irradiation (caveolin-1) | Protein synthesis (COS7 cells [1]) | effect on protein biosynthesis (COS7 cells [1]) | Cell viability (COS7 cells [2]) [%] | beta-galactosidase activity [3] [%] | Cell viability (COS7 cells [4]; 1 min UV) [%] | Cell viability (COS7 cells [4]; 1 min UV + 1 h chase) [%] | Cell viability (COS7 cells [4]; 3 min UV) [%] | Cell viability (COS7 cells [4]; 3 min UV + 1 h chase) [%] | Cell viability (COS7 cells [4]; no UV + 1 h chase at 37 degree Celsius in PBS) [%] | Cell viability (COS7 cells [4]; no UV, percent ± SD of viable cells) [%] | Cell viability (COS7 cells [5]; 10 min UV) [%] | Cell viability (COS7 cells [5]; 10 min UV + 1 h chase) [%] | Cell viability (COS7 cells [5]; 30 min UV) [%] | Cell viability (COS7 cells [5]; 30 min UV + 1 h chase) [%] | competition of cross-linking by Met, Val, Leu and Ile (HA-tagged human PGRMC1) |
| --- | --- | --- | --- | --- | --- | --- | --- | --- | --- | --- | --- | --- | --- | --- | --- | --- |
| CC(C(N)C(=O)O)C1(C)N=N1 (stereo not drawn) [photo-Ile, 2R,S-Amino-3-R,S-methyl-4,4′-azi-pentanoic acid] | very little cross-linking | 62.8 ± 2.8 | no significant effect | 99.6 ± 0.3 | 93 ± 9 | – | – | – | – | – | – | – | – | – | – | – |
| CC1(CC(N)C(=O)O)N=N1 [photo-Leu, L-2-amino-4,4′-azi-pentanoic acid] | significant formation of a cross-linked dimer | 61.5 ± 1.7 | no significant effect | 99.8 ± 0.2 | 68 ± 9 | 99.5 ± 0.2 | 95.5 ± 3.0 | 99.6 ± 0.2 | 95.3 ± 1.8 | 99.3 ± 0.5 | 99.5 ± 0.3 | 99.5 ± 0.3 | 91.5 ± 4.0 | 98.8 ± 0.4 | 17.9 ± 3.2 | competed mainly by Leu |
